Test results reported in publication PMC5131319, “Occurrence, temporal trends, and half-lives of perfluoroalkyl acids (PFAAs) in occupational workers in China” (Scientific Reports, 2016).
Values joined by “and” are separate entries in the source; they are usually repeats but may differ in a detail not shown here. Identical values can stand only once. Like-named read-outs stand apart in the source and are kept apart here.

Tests used:
[1] = Half-life estimated by daily clearance rates (first-order model, k = Cltotal/Vd); format: in vivo, human; details: for half-life: human, serum and urine, other: occupational exposure
Excerpt: Olsen et al.[21] found linear relationship between the logarithm of serum PFAAs concentration and time, and a first order model was adopted to estimate the half-lives of PFAAs. The elimination of PFAAs in humans was also described with the following equation: […]
If we set C(t) as 1/2C0, then the half-life
where k is the elimination rate constant. We calculated k using two approaches in the present study. In the first approach, k is defined as Cltotal/Vd, where Vd stands for the volume of distribution of PFAAs in the human body. Cltotal represents the total daily PFAAs clearance in the human body; for men and women older than 50, it refers to renal clearance, while for young women, it is defined as the sum of menstrual clearance and renal clearance. To keep consistency with other studies, Vd of PFOS and PFHxS were set at 230 mL kg^−1, and Vd of PFOA was set at 170 mL kg^−1 in this study. In the second approach, k is defined as the average annual decline rates of PFAAs in workers who participated in this study.
We used a first order model to estimate the half-lives of PFAAs in workers (Eq (2)). k was defined as […], where Cltotal referred to renal clearance for men and women older than 50 and to the sum of menstrual clearance and renal clearance for young women. According to Eq (2), the half-lives of PFHxS, PFOA, and PFOS for the occupational workers tested ranged from 0.51–3799 years, 0.44–3663 years, and 0.76–30475 years, with GM and median values of 14.7 and 11.7, 4.1 and 4.0, 32.6 and 21.6 years, respectively (Table 2). […] The GM values of the half-lives of PFHxS, PFOA, and PFOS for men here were 19.9, 4.7, and 60.9 years, respectively, while those for women were 7.5, 3.1, and 8.0 years, respectively. The half-lives estimated by the limited clearance route information could be considered as the upper limits for PFAAs. It seemed likely that the unrealistically long half-life estimates derived from the urinary data were actually evidence of the contribution of fecal elimination to the clearance of these chemicals. The extremely long half-lives of PFAAs, such as 3799 years for PFHxS, 3663 years for PFOA, and 30475 years for PFOS, were caused by the application of LOD/2 instead of ND in workers’ urine samples. The geometric mean or median value of the PFAAs half-lives can better reflect the actual situation.

[2] = PFAA concentration in morning urine of occupational workers (HPLC-ESI/MS/MS); format: in vivo, human; details: for Urine PFOA concentration / Urine PFOS concentration: individual workers
Protocol: The selected fluorochemical plant (Henxin Chemical Plant) in this study is one of the largest producers of PFOS-related chemicals in China and is located in Yingcheng, Hubei province. Perfluoroalkyl sulfonic acids (PFSAs) and perfluorotertiary amines are synthesized through an electro-chemical fluorination (ECF) process. We collected paired serum and urine samples from the occupational workers in the plant for five consecutive years, and the sampling activities were carried out in Nov. 2008, Nov. 2009, Nov. 2010, Dec. 2011, and Dec 2012, respectively. The Medical Research Ethics Committee, School of Medicine, Jianghan University, approved the ethics of this study, and all methods were performed in accordance with the relevant guidelines and regulations, moreover, all volunteers gave written informed consent. Demographic information of the donors, including gender, age, length of service, and work assignment, was collected with a questionnaire (Table S1). The sampled population included a total of 302 occupational workers, of which there were 89 female and 213 male participants. In total, 302 serum and 274 urine samples were collected.
The participants were told not to eat breakfast before the sampling, and morning urine samples and blood samples were collected. Serum was separated from the blood by centrifugation at 1100 × g at 4 °C for 10 min and then placed on ice. Serum samples were then transferred to our laboratory on the same day and stored in polypropylene containers at −20 °C until analysis.
All pre-treatment methods and instrument analysis of PFAAs in serum and urine samples are based on previous studies with minor modifications (see Supplementary Information)[3][31]. Based on the PFAA profiles in environmental matrices around the same plant in our previous study, only 3 main PFAAs, PFHxS, PFOA, and PFOS, were analyzed in the obtained serum and urine samples. Instrumental analysis of the PFAAs was performed by a HPLC-ESI/MS/MS system (HPLC: Waters 2695, MS: Waters Quattro Premier XE). The limits of detection (LODs) of PFHxS, PFOA, and PFOS were 0.020, 0.063, and 0.018 ng mL^−1 for serum samples and 0.008, 0.025, and 0.007 ng mL^−1 for urine samples, respectively. A procedural blank was performed for every batch of seven samples, and all of the blank levels were below the LODs. […] Details of quality assurance and quality control of the chemical analysis can be found in the Supplementary Information.
Urine samples were pretreated by solid phase extraction. Briefly, 1 mL of urine spiked with 5 ng of internal standard was added to a 15 - mL PP tube and diluted with 13 mL water. The solid phase extraction procedure was then performed following the previously described serum extraction procedure.

[3] = Female workers, number 71, menstrual clearance added to renal clearance
[4] = Male workers, number 136, renal clearance
[5] = Fabric finishing agent department, N 8

| Compound | Half-life estimated through daily elimination, Max [1, 3] | Half-life estimated through daily elimination, Median [1, 3] | Half-life estimated through daily elimination, Min [1, 3] | Half-life estimated through daily elimination, Min [1, 4] | Half-life estimated through daily elimination, Min ([1]; Total workers, number 207) | Urine concentration, mean ([2]; All workers, N 274) | Urine concentration, median ([2]; All workers, N 274) | Urine concentration, mean ([2]; Electrolytic department, N 67) | Urine concentration, median ([2]; Electrolytic department, N 67) | Urine concentration, mean [2, 5] | Urine concentration, median [2, 5] | Urine concentration, mean ([2]; Management office, N 76) | Urine concentration, median ([2]; Management office, N 76) | Urine concentration, mean ([2]; Research building, N 25) | Urine concentration, median ([2]; Research building, N 25) | Urine concentration, mean ([2]; Sulfonation department, N 98) | Urine concentration, median ([2]; Sulfonation department, N 98) | also measured |
| --- | --- | --- | --- | --- | --- | --- | --- | --- | --- | --- | --- | --- | --- | --- | --- | --- | --- | --- |
| O=C(O)C(F)(F)C(F)(F)C(F)(F)C(F)(F)C(F)(F)C(F)(F)C(F)(F)F [PFOA, perfluorooctanoic acid] | 11.1 years | 2.8 years | 0.44 years | 0.48 years | 0.44 years | 4.3 ng/mL | 1.9 ng/mL | 6.7 ng/mL | 3.5 ng/mL | 5.1 ng/mL | 1.5 ng/mL | 1.5 ng/mL | 0.86 ng/mL | 1.8 ng/mL | 0.92 ng/mL | 4.8 ng/mL | 2.7 ng/mL | half-life ([1]; both sexes, Total workers, number 207, read-out: Half-life estimated through daily elimination, GM (converted)): 1500 days; half-life ([1]; both sexes, Total workers, number 207, read-out: Half-life estimated through daily elimination, Median (converted)): 1460 days; half-life ([1]; female, Female workers, number 71, menstrual clearance added to renal clearance, read-out: Half-life estimated through daily elimination, GM (converted)): 1130 days; half-life ([1]; male, Male workers, number 136, renal clearance, read-out: Half-life estimated through daily elimination, GM (converted)): 1720 days; half-life ([1]; male, Male workers, number 136, renal clearance, read-out: Half-life estimated through daily elimination, Median (converted)): 1610 days; Urine concentration, range [2, 5]: 1.2 to 22.2 ng/mL; Urine PFOA concentration ([2]; sampling year 2008): 5.18 ng/mL and 0.0901 ng/mL and 0.0937 ng/mL and 0.178 ng/mL and 2.21 ng/mL and 7.6 ng/mL and 0.0489 ng/mL and 3.75 ng/mL and 2.54 ng/mL and 2.88 ng/mL and 0.67 ng/mL and 2.31 ng/mL and 1.03 ng/mL and 1.26 ng/mL and 0.0447 ng/mL and 0.688 ng/mL and 2.24 ng/mL and 2 ng/mL and 1.47 ng/mL and 0.668 ng/mL and 0.709 ng/mL and 0.448 ng/mL and 4.18 ng/mL and 5 ng/mL and 8.09 ng/mL and 7.15 ng/mL and 6.68 ng/mL; Urine PFOA concentration ([2]; sampling year 2009): 3.45 ng/mL and 8.82 ng/mL and 14.8 ng/mL and 1.48 ng/mL and 15.8 ng/mL and 19.6 ng/mL and 6.9 ng/mL and 5.24 ng/mL and 1.14 ng/mL and 1.2 ng/mL and 1.69 ng/mL and 0.889 ng/mL and 4 ng/mL and 0.515 ng/mL and 2.24 ng/mL and 5.25 ng/mL and 1.05 ng/mL and 0.776 ng/mL and 0.537 ng/mL and 12.4 ng/mL and 4.34 ng/mL and 1.12 ng/mL and 15.3 ng/mL and 19.1 ng/mL and 10 ng/mL and 4.81 ng/mL |
| O=S(=O)(O)C(F)(F)C(F)(F)C(F)(F)C(F)(F)C(F)(F)C(F)(F)C(F)(F)C(F)(F)F [PFOS, perfluorooctanesulfonate] | 15.1 years | 9.4 years | 0.76 years | 2.7 years | 0.76 years | 4.4 ng/mL | 1.2 ng/mL | 1.8 ng/mL | 0.93 ng/mL | 0.39 ng/mL | LOD | 1.6 ng/mL | 0.49 ng/mL | 1.4 ng/mL | 1.1 ng/mL | 8.8 ng/mL | 3.0 ng/mL | Half-life estimated through daily elimination, GM [1, 3]: 8.0 years; Urine PFOS concentration ([2]; sampling year 2008): 0.918 ng/mL and 7.8 ng/mL and 7.66 ng/mL and 0.697 ng/mL and 0.425 ng/mL and 17.2 ng/mL and 3.94 ng/mL and 2.12 ng/mL and 0.736 ng/mL and 0.943 ng/mL and 2.18 ng/mL and 0.818 ng/mL and 0.217 ng/mL and 0.819 ng/mL and 0.291 ng/mL and 4.7 ng/mL and 7.69 ng/mL and 3.07 ng/mL and 0.465 ng/mL and 22.5 ng/mL and 3.09 ng/mL; Urine PFOS concentration ([2]; sampling year 2009): 0.361 ng/mL and 7.85 ng/mL and 2.17 ng/mL and 1.4 ng/mL and 0.831 ng/mL and 1.51 ng/mL and 0.198 ng/mL and 2.73 ng/mL and 0.47 ng/mL and 0.288 ng/mL and 0.078 ng/mL and 0.206 ng/mL and 0.094 ng/mL and 0.171 ng/mL and 0.84 ng/mL and 1.33 ng/mL and 0.14 ng/mL and 1.86 ng/mL and 2.58 ng/mL and 1.8 ng/mL; Urine PFOS concentration ([2]; sampling year 2010): 1.14 ng/mL and 0.258 ng/mL and 0.177 ng/mL and 64.2 ng/mL and 0.884 ng/mL and 0.714 ng/mL and 0.912 ng/mL and 0.855 ng/mL and 2.44 ng/mL and 0.39 ng/mL and 3.98 ng/mL and 0.314 ng/mL and 0.409 ng/mL and 1.98 ng/mL and 0.139 ng/mL and 14 ng/mL and 14.2 ng/mL and 7.14 ng/mL and 3.93 ng/mL; Urine PFOS concentration ([2]; sampling year 2011): 0.14 ng/mL and 0.17 ng/mL and 0.47 ng/mL and 49.90 ng/mL and 2.18 ng/mL and 0.43 ng/mL and 0.54 ng/mL and 5.08 ng/mL and 0.52 ng/mL and 0.29 ng/mL and 0.75 ng/mL and 0.51 ng/mL and 0.04 ng/mL and 0.70 ng/mL and 0.74 ng/mL and 1.78 ng/mL and 14.70 ng/mL and 7.74 ng/mL and 4.91 ng/mL and 2.24 ng/mL; Urine PFOS concentration ([2]; sampling year 2012): 0.7 ng/mL and 26.46 ng/mL and 0.46 ng/mL and 1.62 ng/mL and 0.22 ng/mL and 0.44 ng/mL and 0.58 ng/mL and 0.18 ng/mL and 0.5 ng/mL and 0.78 ng/mL and 0.1 ng/mL and 1.64 ng/mL and 0.06 ng/mL and 0.26 ng/mL and 0.12 ng/mL and 0.42 ng/mL and 7.26 ng/mL and 7.8 ng/mL and 9.72 ng/mL and 5.64 ng/mL |
